pIC50: −log10 of the molar value.
Biological target: T1, NAD(+) hydrolase SARM1 (Homo sapiens, UniProt Q6SZW1)
T1 sequence (Q6SZW1 whole entry): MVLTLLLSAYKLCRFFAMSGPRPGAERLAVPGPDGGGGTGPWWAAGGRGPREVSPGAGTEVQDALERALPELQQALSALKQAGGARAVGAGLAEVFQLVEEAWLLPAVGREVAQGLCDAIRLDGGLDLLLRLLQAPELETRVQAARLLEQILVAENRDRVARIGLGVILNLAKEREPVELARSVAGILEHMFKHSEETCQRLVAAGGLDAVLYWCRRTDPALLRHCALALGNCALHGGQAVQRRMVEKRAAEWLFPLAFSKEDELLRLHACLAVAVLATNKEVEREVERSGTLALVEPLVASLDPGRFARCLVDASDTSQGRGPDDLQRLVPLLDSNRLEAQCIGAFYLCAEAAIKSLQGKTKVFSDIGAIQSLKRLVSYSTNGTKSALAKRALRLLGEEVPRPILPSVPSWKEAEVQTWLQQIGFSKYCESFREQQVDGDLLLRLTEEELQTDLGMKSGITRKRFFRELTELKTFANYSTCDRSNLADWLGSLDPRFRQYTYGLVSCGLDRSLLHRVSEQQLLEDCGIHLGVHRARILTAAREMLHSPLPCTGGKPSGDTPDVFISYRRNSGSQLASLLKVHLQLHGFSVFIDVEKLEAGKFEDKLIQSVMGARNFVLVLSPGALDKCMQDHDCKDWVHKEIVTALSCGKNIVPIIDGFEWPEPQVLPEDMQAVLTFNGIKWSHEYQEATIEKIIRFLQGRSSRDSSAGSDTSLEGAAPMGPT
Assay: Biochemical Assay of the Compounds
Method: Preparation of full-length SARM1 (FL-SARM1) lysate: HEK293T cells (ATCC: CRL-3216) were grown on 150 mm TC-treated dishes to 80-90% confluency in complete DMEM (DMEM (Thermo Fisher: 11965175) supplemented with 10% HI-FBS (VWR: 10802-772), 1x Pen/Strep (Thermo Fisher: 15140122), 1x NEAA (Thermo Fisher: 1140050), 1x glutamax (Thermo Fisher: 35050061), and 1 mM sodium pyruvate (Thermo Fisher: 11360070)) at 37 °C and 5% CO2. One hour prior to transfection, the media was replaced with fresh, 37 °C complete DMEM (20 mL per one 150 mm dish) supplemented with additional 10mM glucose (Alfa Aesar AAJ60067EQE). Per one 150 mm dish, 30 µg FL-SARM1 (SEQ. ID.1; cloned in-house) plasmid was dissolved in 1 mL DMEM at ambient temperature and were mixed by inverting the tube 8-10 times.90 µL of GenJet™ in vitro DNA transfection reagent (Ver2) was dissolved in 1 mL DMEM at ambient temperature and were mixed by inverting the tube 8-10 times. The plasmid and transfection agent solutions were combined, mixed by 8-10 inversions and incubated for 10 minutes at ambient temperature.2 mL of this transfection mixture was added to each dish containing HEK293T cells as prepared above followed by a gentle mixing of 4-5 horizontal rotations. The dishes were incubated at 37 °C and 5% CO2 for 24 h. The dishes were removed from the incubator, the medium was aspirated and the cells were scraped off using cell scrapers in ice-cold 1x PBS (5 mL/dish, Thermo Fisher Scientific 10010023). The collected cells were centrifuged at 300 g for 5 minutes at 4 °C. The supernatant was aspirated and the pellet was frozen at -80 °C until needed. The cell pellet from 30 dishes was dissolved in 30 mL 1x PBS supplemented with 4 tablets of Complete, Mini EDTA-free protease inhibitor cocktail at 4 °C. This mixture was sonicated on ice for 10 minutes at 50% amplitude with a 1 second on/1 second off interval using a Model 120 sonicator (Thermo Fisher Scientific, FB120110). The lysate was centrifuged at 16000 g for 10 minutes at 4 °C.

| pIC50 | SMILES |
| --- | --- |
| > 6.00 | N#C[C@@H]1CC[C@@H]1c1cc(NC(=O)N2C3CC2CC(C(F)(F)F)C3)ccc1C(F)(F)F (some centres undefined) [WO2025054369, Example 53] |
| > 6.00 | N#C[C@H]1CC[C@@H]1c1cc(NC(=O)N2C3CC2CC(C(F)(F)F)C3)ccc1C(F)(F)F (some centres undefined) [WO2025054369, Example 54] |
| > 6.00 | N#C[C@@H]1CC[C@H]1c1cc(NC(=O)N2C3CC2CC(C(F)(F)F)C3)ccc1C(F)(F)F (some centres undefined) [WO2025054369, Example 55] |
| 5.26 | N#C[C@H]1CC[C@H]1c1cc(NC(=O)N2C3CC2CC(C(F)(F)F)C3)ccc1Cl (some centres undefined) [WO2025054369, Example 56] |
| < 5.00 | Cc1nnc([C@]23CCC[C@H](C2)N3C(=O)Nc2ccc(Cl)c(C3CCC3)c2)o1 [WO2025054369, Example 58] |
| 5.26 | Cc1nnc([C@@]23CCC[C@@H](C2)N3C(=O)Nc2ccc(Cl)c(C3CCC3)c2)o1 [WO2025054369, Example 59] |
| > 6.00 | CC1CC2CC(C1)N2C(=O)Nc1ccc(Cl)c([C@@H]2CCC[C@@H]2C#N)c1 (some centres undefined) [WO2025054369, Example 60] |
| > 6.00 | CC1CC2CC(C1)N2C(=O)Nc1ccc(Cl)c([C@H]2CCC[C@H]2C#N)c1 (some centres undefined) [WO2025054369, Example 61] |
| > 6.00 | CC1CC2CC(C1)N2C(=O)Nc1ccc(Cl)c([C@H]2CCC[C@@H]2C#N)c1 (some centres undefined) [WO2025054369, Example 62] |
| > 6.00 | CC1CC2CC(C1)N2C(=O)Nc1ccc(Cl)c([C@@H]2CCC[C@H]2C#N)c1 (some centres undefined) [WO2025054369, Example 63] |
| > 6.00 | C[C@]1(O)CC[C@H](c2cc(NC(=O)N3C4CC3CC(C(F)(F)F)C4)ccc2Cl)C1 (some centres undefined) [WO2025054369, Example 64] |
| 5.26 | C[C@@]1(O)CC[C@@H](c2cc(NC(=O)N3C4CC3CC(C(F)(F)F)C4)ccc2Cl)C1 (some centres undefined) [WO2025054369, Example 65] |
| > 6.00 | C[C@]1(O)CC[C@@H](c2cc(NC(=O)N3C4CC3CC(C(F)(F)F)C4)ccc2Cl)C1 (some centres undefined) [WO2025054369, Example 66] |
| > 6.00 | C[C@@]1(O)CC[C@H](c2cc(NC(=O)N3C4CC3CC(C(F)(F)F)C4)ccc2Cl)C1 (some centres undefined) [WO2025054369, Example 67] |
| > 6.00 | Cc1nnc([C@@]23C[C@@H](C[C@@H](C(F)(F)F)C2)N3C(=O)Nc2ccc(Cl)c(C3CCC3)c2)o1 [WO2025054369, Example 68] |
| < 5.00 | Cc1nnc([C@]23C[C@H](C[C@H](C(F)(F)F)C2)N3C(=O)Nc2ccc(Cl)c(C3CCC3)c2)o1 [WO2025054369, Example 69] |
| > 6.00 | Cc1nnc([C@@]23C[C@@H](C)C[C@@H](C2)N3C(=O)Nc2ccc(Cl)c(N3CC(O)C3)c2)o1 [WO2025054369, Example 70] |
| > 6.00 | CC1CC2CC(C1)N2C(=O)Nc1ccc(Cl)c(N2CC[C@@H]2C#N)c1 (some centres undefined) [WO2025054369, Example 71] |
| > 6.00 | CC1CC2CC(C1)N2C(=O)Nc1ccc(Cl)c(N2CC[C@H]2C#N)c1 (some centres undefined) [WO2025054369, Example 72] |
| 5.26 | CC1(O)CC(c2cc(NC(=O)N3C4CC3CC(C(F)(F)F)C4)ccc2CN)C1 (centres undefined) [WO2025054369, Example 73] |
| > 6.00 | CC1CC2CC(C1)N2C(=O)Nc1ccc(Cl)c(C2CC(C)(OCCO)C2)c1 (centres undefined) [WO2025054369, Example 74] |
| > 6.00 | CC1CC2CC(C1)N2C(=O)Nc1ccc(C(F)(F)F)c(C2CCC2)c1 (centres undefined) [WO2025054369, Example 75] |

| pIC50 | SMILES |
| --- | --- |
| > 6.00 | CC1CC2CC(C1)N2C(=O)Nc1ccc(Cl)c(C2CCC2(F)F)c1 (centres undefined) [WO2025054369, Example 76] |
| > 6.00 | CC1CC2CC(C1)N2C(=O)Nc1ccc(Cl)c(C2CC(=O)C2)c1 (centres undefined) [WO2025054369, Example 77] |
| > 6.00 | CC1CC2CC(C1)N2C(=O)Nc1ccc(Cl)c(C2CC(O)C2)c1 (centres undefined) [WO2025054369, Example 78] |
| 5.26 | COC(C)(C)c1cc(NC(=O)N2C3CC(C)CC2C3)ccc1Cl (centres undefined) [WO2025054369, Example 79] |
| > 6.00 | Cc1noc(C23CC(C)CC(C2)N3C(=O)Nc2ccc(Cl)c(C3CCC3)c2)n1 (centres undefined) [WO2025054369, Example 80] |
| 5.26 | CC1CC2CC(C1)N2C(=O)Nc1ccc(Cl)c(C(C)(C)O)c1 (centres undefined) [WO2025054369, Example 81] |
| > 6.00 | Cc1noc(C23CC(C)CC(C2)N3C(=O)Nc2ccc(Cl)c(C3CCCC3)c2)n1 (centres undefined) [WO2025054369, Example 82] |
| > 6.00 | CC1CC2CC(C1)N2C(=O)Nc1ccc(Cl)c(C2CCC2=O)c1 (centres undefined) [WO2025054369, Example 83] |
| > 6.00 | CC1CC2CC(C1)N2C(=O)Nc1ccc(Cl)c(N2CCC2CF)c1 (centres undefined) [WO2025054369, Example 84] |
| 5.26 | CC1CC2CC(C1)N2C(=O)Nc1ccc(Cl)c(N2CC(OCCO)C2)c1 (centres undefined) [WO2025054369, Example 85] |
| < 5.00 | CC1CC2CC(C1)N2C(=O)Nc1ccc(Cl)c(N2CC(OCCN)C2)c1 (centres undefined) [WO2025054369, Example 86] |
| > 6.00 | CC1CC2CC(C1)N2C(=O)Nc1ccc(Cl)c(N2CC[C@@H](O)C2)c1 (some centres undefined) [WO2025054369, Example 87] |
| > 6.00 | CC1CC2CC(C1)N2C(=O)Nc1ccc(Cl)c(N2CC[C@H](O)C2)c1 (some centres undefined) [WO2025054369, Example 88] |
| > 6.00 | O=C(Nc1ccc(Cl)c(N2CC(O)C2)c1)N1C2CC1CC(C(F)(F)F)C2 (centres undefined) [WO2025054369, Example 89] |
| > 6.00 | CC1CC2CC(C1)N2C(=O)Nc1ccc(C(F)(F)F)c(N2CC(O)C2)c1 (centres undefined) [WO2025054369, Example 90] |
| > 6.00 | C[C@@H]1C[C@@H]2C[C@H](C1)N2C(=O)Nc1ccc(Cl)c(N2CC(C#N)C2)c1 [WO2025054369, Example 91] |
| > 6.00 | C[C@@H]1C[C@@H]2C[C@H](C1)N2C(=O)Nc1ccc(Cl)c(N2CC(O)C2)c1 [WO2025054369, Example 92] |
| 5.26 | C[C@@H]1C[C@@H]2C[C@H](C1)N2C(=O)Nc1ccc(Cl)c(N2CCCC2=O)c1 [WO2025054369, Example 93] |
| 5.26 | C[C@@H]1C[C@@H]2C[C@H](C1)N2C(=O)Nc1ccc(Cl)c(N2CCOC2=O)c1 [WO2025054369, Example 94] |
| > 6.00 | C[C@@H]1C[C@@H]2C[C@H](C1)N2C(=O)Nc1ccc(Cl)c(N2CCC2)c1 [WO2025054369, Example 95] |
| > 6.00 | C[C@@H]1C[C@@H]2C[C@H](C1)N2C(=O)Nc1ccc(Cl)c(N2CCNC2=O)c1 [WO2025054369, Example 96] |
| 5.26 | Cc1ccc(NC(=O)N2C3CCCC2C3)cc1N1CCN(C)C1=O [WO2025054369, Example 97] |

Source: BindingDB's records for patent WO2025054369 (NICO Therapeutics, 2025)
